Results as given in patent US10584115B2, “Substituted pyridine and pyrazine BMI-1 inhibitors” (PTC Therapeutics, Inc., priority 2013, dated 2020).
Where two headings read alike, the source gives them in different places.

Columns and labels:
Bmi-1 protein = assay: Sandwich ELISA Assay (Bmi-1 protein level in HT-1080 cells after compound treatment); type: cell-based
Procedure, shortened: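 HT-1080 cells exposed to compounds for 40–48 h at 37 °C (0.5% DMSO final), then lysed. Bmi-1 in lysates measured by sandwich ELISA (mouse monoclonal capture, rabbit anti-Bmi-1 detection, HRP anti-rabbit, TMB), read at OD450 with OD570 reference against a recombinant Bmi-1 standard curve (0–8000 pg/mL).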

[1] = Table 1, Bmi-1 sandwich ELISA, read-out: ELISA EC50 value for Bmi-1 protein
[2] = read-out: ELISA EC50 value for Bmi-1 protein, Table 1, Bmi-1 sandwich ELISA

Cc1nc2ccc(F)cc2n1-c1cncc(Nc2ccc(OC(F)F)c(F)c2)n1 [compound 320, N-[4-(difluoromethoxy)-3-fluorophenyl]-6-(6-fluoro-2-methyl-1H-benzimidazol-1-yl)pyrazin-2-amine]
melting point: 230 to 231 °C | EC50 (Bmi-1 protein; [1]): 10 to 100 nM

CCn1nc(C(F)(F)F)c(-c2cncc(Nc3ccc(C(F)(F)F)cc3)n2)c1C [compound 329, 6-[1-ethyl-5-methyl-3-(trifluoromethyl)-1H-pyrazol-4-yl]-N-[4-(trifluoromethyl)phenyl]pyrazin-2-amine]
melting point: 150 to 151 °C | EC50 (Bmi-1 protein; [1]): 10 to 100 nM

CCn1nc(C(F)(F)F)c(-c2cncc(Nc3ccc(OC(F)(F)F)cc3)n2)c1C [compound 331, 6-[1-ethyl-5-methyl-3-(trifluoromethyl)-1H-pyrazol-4-yl]-N-[4-(trifluoromethoxy)phenyl]pyrazin-2-amine]
melting point: 128 to 129 °C | EC50 (Bmi-1 protein; [1]): 100 to 3000 nM

CCc1nn(C)c(CC)c1-c1cncc(Nc2ccc(C(F)(F)F)cc2)n1 [compound 332, 6-(3,5-diethyl-1-methyl-1H-pyrazol-4-yl)-N-[4-(trifluoromethyl)phenyl]pyrazin-2-amine]
melting point: 59 to 60 °C | EC50 (Bmi-1 protein; [1]): 10 to 100 nM

CCc1nn(C)c(CC)c1-c1cncc(Nc2ccc(OC(F)(F)F)cc2)n1 [compound 334, 6-(3,5-diethyl-1-methyl-1H-pyrazol-4-yl)-N-[4-(trifluoromethoxy)phenyl]pyrazin-2-amine]
melting point: 122 to 123 °C | EC50 (Bmi-1 protein; [1]): 10 to 100 nM

Cc1nn(CCO)c(C)c1-c1cncc(Nc2ccc(C(F)(F)F)cc2)n1 [compound 335, 2-[3,5-dimethyl-4-(6-{[4-(trifluoromethyl)phenyl]amino}pyrazin-2-yl)-1H-pyrazol-1-yl]ethanol]
melting point: 172 to 174 °C | EC50 (Bmi-1 protein; [1]): 1 to 10 nM

Fc1ccc2nc(C3CC3)c(-c3cncc(Nc4ccc(C(F)(F)F)cc4)n3)n2c1 [compound 336, 6-(2-cyclopropyl-6-fluoroimidazo[1,2-a]pyridin-3-yl)-N-[4-(trifluoromethyl)phenyl]pyrazin-2-amine]
melting point: 183 to 185 °C | EC50 (Bmi-1 protein; [1]): 1 to 10 nM

Fc1ccc2nc(C3CC3)c(-c3cncc(Nc4ccc(OC(F)F)cc4)n3)n2c1 [compound 337, 6-(2-cyclopropyl-6-fluoroimidazo[1,2-a]pyridin-3-yl)-N-[4-(difluoromethoxy)phenyl]pyrazin-2-amine]
melting point: 183 to 185 °C | EC50 (Bmi-1 protein; [1]): < 1 nM

Fc1ccc2nc(C3CC3)c(-c3cncc(Nc4ccc(OC(F)F)c(F)c4)n3)n2c1 [compound 338, 6-(2-cyclopropyl-6-fluoroimidazo[1,2-a]pyridin-3-yl)-N-[4-(difluoromethoxy)-3-fluorophenyl]pyrazin-2-amine]
melting point: 173 to 175 °C | EC50 (Bmi-1 protein; [1]): 1 to 10 nM

N#Cc1cc(Nc2ccc(C(F)(F)F)cc2)nc(-c2c(C3CC3)nc3ccc(F)cn23)c1 [compound 346, 2-(2-cyclopropyl-6-fluoroimidazo[1,2-a]pyridin-3-yl)-6-{[4-(trifluoromethyl)phenyl]amino}pyridine-4-carbonitrile]
melting point: 245 to 247 °C | EC50 (Bmi-1 protein; [1]): 10 to 100 nM

N#Cc1cc(Nc2ccc(C(F)(F)F)c(F)c2)nc(-c2c(C3CC3)nc3ccc(F)cn23)c1 [compound 347, 2-(2-cyclopropyl-6-fluoroimidazo[1,2-a]pyridin-3-yl)-6-{[3-fluoro-4-(trifluoromethyl)phenyl]amino}pyridine-4-carbonitrile]
melting point: 256 to 258 °C | EC50 (Bmi-1 protein; [1]): 10 to 100 nM

N#Cc1cc(Nc2ccc(OC(F)F)c(F)c2)nc(-c2c(C3CC3)nc3ccc(F)cn23)c1 [compound 349, 2-(2-cyclopropyl-6-fluoroimidazo[1,2-a]pyridin-3-yl)-6-{[4-(difluoromethoxy)-3-fluorophenyl]amino}pyridine-4-carbonitrile]
melting point: 185 to 186 °C | EC50 (Bmi-1 protein; [1]): 10 to 100 nM

N#Cc1cc(Nc2ccc(OC(F)(F)F)cc2)nc(-c2c(C3CC3)nc3ccc(F)cn23)c1 [compound 350, 2-(2-cyclopropyl-6-fluoroimidazo[1,2-a]pyridin-3-yl)-6-{[4-(trifluoromethoxy)phenyl]amino}pyridine-4-carbonitrile]
melting point: 194 to 195 °C | EC50 (Bmi-1 protein; [1]): 10 to 100 nM

Cc1nn(CCn2ncnn2)c(C)c1-c1cncc(Nc2ccc(C(F)(F)F)cc2)n1 [compound 352, 6-{3,5-dimethyl-1-[2-(2H-tetrazol-2-yl)ethyl]-1H-pyrazol-4-yl}-N-[4-(trifluoromethyl)phenyl]pyrazin-2-amine]
melting point: 138 to 139 °C | EC50 (Bmi-1 protein; [2]): 1 to 10 nM

Fc1ccc2nc(C3CC3)n(-c3cncc(Nc4ccc(C(F)(F)F)cc4)n3)c2c1 [compound 362, 6-(2-cyclopropyl-6-fluoro-1H-benzimidazol-1-yl)-N-[4-(trifluoromethyl)phenyl]pyrazin-2-amine]
melting point: 263 to 265 °C | EC50 (Bmi-1 protein; [1]): 1 to 10 nM

Nc1cc(Nc2ccc(C(F)(F)F)cc2)nc(-c2c(C3CC3)nc3ccc(F)cn23)c1 [compound 363, 6-(2-cyclopropyl-6-fluoroimidazo[1,2-a]pyridin-3-yl)-N^2-[4-(trifluoromethyl)phenyl]pyridine-2,4-diamine]
melting point: 160 to 162 °C | EC50 (Bmi-1 protein; [1]): 100 to 3000 nM

Nc1cc(Nc2ccc(OC(F)F)cc2)nc(-c2c(C3CC3)nc3ccc(F)cn23)c1 [compound 365, 6-(2-cyclopropyl-6-fluoroimidazo[1,2-a]pyridin-3-yl)-N^2-[4-(difluoromethoxy)phenyl]pyridine-2,4-diamine]
melting point: 185 to 186 °C | EC50 (Bmi-1 protein; [1]): 100 to 3000 nM

Nc1cc(Nc2ccc(OC(F)F)c(F)c2)nc(-c2c(C3CC3)nc3ccc(F)cn23)c1 [compound 366, 6-(2-cyclopropyl-6-fluoroimidazo[1,2-a]pyridin-3-yl)-N^2-[4-(difluoromethoxy)-3-fluorophenyl]pyridine-2,4-diamine]
melting point: 169 to 170 °C | EC50 (Bmi-1 protein; [1]): 100 to 3000 nM

Nc1cc(Nc2ccc(OC(F)(F)F)cc2)nc(-c2c(C3CC3)nc3ccc(F)cn23)c1 [compound 367, 6-(2-cyclopropyl-6-fluoroimidazo[1,2-a]pyridin-3-yl)-N^2-[4-(trifluoromethoxy)phenyl]pyridine-2,4-diamine]
melting point: 166 to 168 °C | EC50 (Bmi-1 protein; [1]): 10 to 100 nM

NS(=O)(=O)Nc1cc(Nc2ccc(C(F)(F)F)cc2)nc(-c2c(C3CC3)nc3ccc(F)cn23)c1 [compound 368, N-[2-(2-cyclopropyl-6-fluoroimidazo[1,2-a]pyridin-3-yl)-6-{[4-(trifluoromethyl)phenyl]amino}pyridin-4-yl]sulfuric diamide]
melting point: 158 to 160 °C | EC50 (Bmi-1 protein; [1]): 100 to 3000 nM

NC(=O)Nc1cc(Nc2ccc(C(F)(F)F)cc2)nc(-c2c(C3CC3)nc3ccc(F)cn23)c1 [compound 369, 1-[2-(2-cyclopropyl-6-fluoroimidazo[1,2-a]pyridin-3-yl)-6-{[4-(trifluoromethyl)phenyl]amino}pyridin-4-yl]urea]
melting point: 232 to 235 °C | EC50 (Bmi-1 protein; [2]): 100 to 3000 nM

CCn1nc(C)c(-c2cncc(Nc3ccc(OC(F)F)c(F)c3)n2)c1C [compound 382, N-[4-(difluoromethoxy)-3-fluorophenyl]-6-(1-ethyl-3,5-dimethyl-1H-pyrazol-4-yl)pyrazin-2-amine]
melting point: 129 to 130 °C | EC50 (Bmi-1 protein; [1]): 1 to 10 nM

Cc1nn(Cc2ccccn2)c(C)c1-c1cncc(Nc2ccc(C(F)(F)F)cc2)n1 [compound 400, 6-[3,5-dimethyl-1-(pyridin-2-ylmethyl)-1H-pyrazol-4-yl]-N-[4-(trifluoromethyl)phenyl]pyrazin-2-amine]
melting point: 50 to 51 °C | EC50 (Bmi-1 protein; [1]): 100 to 3000 nM

Cc1nn(Cc2ccccn2)c(C)c1-c1cncc(Nc2ccc(OC(F)F)cc2)n1 [compound 401, N-[4-(difluoromethoxy)phenyl]-6-[3,5-dimethyl-1-(pyridin-2-ylmethyl)-1H-pyrazol-4-yl]pyrazin-2-amine]
melting point: 47 to 48 °C | EC50 (Bmi-1 protein; [1]): 100 to 3000 nM

Cc1nn(Cc2cccnc2)c(C)c1-c1cncc(Nc2ccc(C(F)(F)F)cc2)n1 [compound 402, 6-[3,5-dimethyl-1-(pyridin-3-ylmethyl)-1H-pyrazol-4-yl]-N-[4-(trifluoromethyl)phenyl]pyrazin-2-amine]
melting point: 47 to 48 °C | EC50 (Bmi-1 protein; [1]): 10 to 100 nM

Cc1nn(Cc2ccncc2)c(C)c1-c1cncc(Nc2ccc(C(F)(F)F)cc2)n1 [compound 403, 6-[3,5-dimethyl-1-(pyridin-4-ylmethyl)-1H-pyrazol-4-yl]-N-[4-(trifluoromethyl)phenyl]pyrazin-2-amine]
melting point: 66 to 67 °C | EC50 (Bmi-1 protein; [1]): 10 to 100 nM

Cc1nn(CC[C@H](O)CO)c(C)c1-c1cncc(Nc2ccc(C(F)(F)F)cc2)n1 [compound 404, (2S)-4-[3,5-dimethyl-4-(6-{[4-(trifluoromethyl)phenyl]amino}pyrazin-2-yl)-1H-pyrazol-1-yl]butane-1,2-diol]
melting point: 75 to 77 °C | EC50 (Bmi-1 protein; [1]): 100 to 3000 nM

N#Cc1cc(Nc2ccc(C(F)(F)F)cc2)nc(-n2c(C3CC3)nc3ccc(F)cc32)c1 [compound 410, 2-(2-cyclopropyl-6-fluoro-1H-benzimidazol-1-yl)-6-{[4-(trifluoromethyl)phenyl]amino}pyridine-4-carbonitrile]
melting point: 291 to 293 °C | EC50 (Bmi-1 protein; [1]): 10 to 100 nM

Cc1nc2ncc(F)cn2c1-c1cc(C#N)cc(Nc2ccc(C(F)(F)F)cc2)n1 [compound 437, 2-(6-fluoro-2-methylimidazo[1,2-a]pyrimidin-3-yl)-6-{[4-(trifluoromethyl)phenyl]amino}pyridine-4-carbonitrile]
melting point: 290 to 292 °C | EC50 (Bmi-1 protein; [1]): 1 to 10 nM

Cc1nc2ncc(F)cn2c1-c1cc(C#N)cc(Nc2ccc(OC(F)F)c(F)c2)n1 [compound 439, 2-{[4-(difluoromethoxy)-3-fluorophenyl]amino}-6-(6-fluoro-2-methylimidazo[1,2-a]pyrimidin-3-yl)pyridine-4-carbonitrile]
melting point: 268 to 270 °C | EC50 (Bmi-1 protein; [1]): 10 to 100 nM
